PMC9732821, “Neurotrophic Activity and Its Modulation by Zinc Ion of a Dimeric Peptide Mimicking the Brain-Derived Neurotrophic Factor N-Terminal Region” (ACS Chemical Neuroscience, 2022)

Test system: TrkB-EGFP
Assay: TrkB dimerization, number & brightness (N&B) in living SH-SY5Y cells
Assay type: cell-based, human
Conditions: 150 ng/mL BDNF or 10 μM d-bdnf, within 30 min; f-EGFP monomeric reference; two independent experiments
Experimental: Figure 1 Activation of the TrkB receptor by BDNF and its mimetic peptide ligands. (A) Schematic picture of the human TrkB receptor fused to the EGFP construct (hTrkB-EGFP); recombinant human mature BDNF (hBDNF); monomeric peptide, m-bdnf; dimeric peptide, d-bdnf; scrambled s-bdnf. (B) WB showing Tyr phosphorylation (p-Tyr, top) and total TrkB levels (bottom) in SH-SY5Y cells transfected with hTrkB-EGFP in the absence (ctrl) or presence of 10 min stimulation with 150 ng/mL BDNF or 10 μM m-bdnf, d-bdnf, or s-bdnf. Samples were immunoprecipitated (IP) with the anti-GFP antibody before WB. […] (C) Scatter dot plot of ERK (left) and AKT (right) phosphorylation levels detected in differentiated SH-SY5Y cells, after stimulation with the same treatments as in (B). […] (G) Bar graph of mean ± SD ‘B-1’ values retrieved from N&B analysis for all the different conditions measured. […]
The same TrkB-GFP expressing SH-SY5Y cells were used to deeper investigate the mechanism of TrkB activation induced by d-bdnf, using an advanced imaging approach in living cells. We exploited a fluorescence correlation technique, which directly correlates the brightness of each fluorescent pixel of the image to the number of TrkB molecules averagely populating that pixel during the observation time (number & brightness technique—N&B[34],[35]). […]

Row | Molecule | TrkB monomer/dimer state at plasma membrane
1 | HSDPARRGELSVC-C-VSLEGRRAPDSH (disulfide) [d-bdnf] | shift toward the dimeric form
2 | brain-derived neurotrophic factor (protein, UniProt P23560 1-247, looked up, full-length, full-length human BDNF produced recombinantly in Escherichia coli) MTILFLTMVISYFGCMKAAPMKEANIRGQGGLAYPGVRTHGTLESVNGPKAGSRGLTSLADTFEHVIEELLDEDQKVRPNEENNKDADLYTSRVMLSSQVPLEPPLLFLLEEYKNYLDAANMSMRVRRHSDPARRGELSVCDSISEWVTAADKKTAVDMSGGTVTVLEKVPVSKGQLKQYFYETKCNPMGYTKEGCRGIDKRHWNSQCRTTQSYVRALTMDSKKRIGWRFIRIDTSCVCTLTIKRGR | shift toward the dimeric form
